For assay [1], the system named is Huh-7. The experiment in a line: Cytotoxicity against human Huh-7 cells harboring FGF19/FGFR4 assessed as inhibition of cell growth.
Assay [2] deals with Fibroblast growth factor receptor 3 (Homo sapiens, UniProt P22607). Put plainly: Inhibition of FGFR3 (unknown origin) using Tyr 04 peptide substrate measured after 2 hrs by FRET assay.
Assay [3] deals with Hep 3B2. The experiment in a line: Cytotoxicity against human Hep 3B2.1-7 cells harboring FGF19/FGFR4 assessed as inhibition of cell growth. The note with it: Hep3B.
Assay [4] deals with MDA-MB-453. The experiment in a line: Cytotoxicity against human MDA-MB-453 cells harboring FGF19/FGFR4 assessed as inhibition of cell growth.
The target of assay [5] is Fibroblast growth factor receptor 2 (Homo sapiens, UniProt P21802). The experiment in a line: Inhibition of FGFR2 (unknown origin) using Tyr 04 peptide substrate measured after 2 hrs by FRET assay.
Fibroblast growth factor receptor 2, sequence (P21802 whole entry): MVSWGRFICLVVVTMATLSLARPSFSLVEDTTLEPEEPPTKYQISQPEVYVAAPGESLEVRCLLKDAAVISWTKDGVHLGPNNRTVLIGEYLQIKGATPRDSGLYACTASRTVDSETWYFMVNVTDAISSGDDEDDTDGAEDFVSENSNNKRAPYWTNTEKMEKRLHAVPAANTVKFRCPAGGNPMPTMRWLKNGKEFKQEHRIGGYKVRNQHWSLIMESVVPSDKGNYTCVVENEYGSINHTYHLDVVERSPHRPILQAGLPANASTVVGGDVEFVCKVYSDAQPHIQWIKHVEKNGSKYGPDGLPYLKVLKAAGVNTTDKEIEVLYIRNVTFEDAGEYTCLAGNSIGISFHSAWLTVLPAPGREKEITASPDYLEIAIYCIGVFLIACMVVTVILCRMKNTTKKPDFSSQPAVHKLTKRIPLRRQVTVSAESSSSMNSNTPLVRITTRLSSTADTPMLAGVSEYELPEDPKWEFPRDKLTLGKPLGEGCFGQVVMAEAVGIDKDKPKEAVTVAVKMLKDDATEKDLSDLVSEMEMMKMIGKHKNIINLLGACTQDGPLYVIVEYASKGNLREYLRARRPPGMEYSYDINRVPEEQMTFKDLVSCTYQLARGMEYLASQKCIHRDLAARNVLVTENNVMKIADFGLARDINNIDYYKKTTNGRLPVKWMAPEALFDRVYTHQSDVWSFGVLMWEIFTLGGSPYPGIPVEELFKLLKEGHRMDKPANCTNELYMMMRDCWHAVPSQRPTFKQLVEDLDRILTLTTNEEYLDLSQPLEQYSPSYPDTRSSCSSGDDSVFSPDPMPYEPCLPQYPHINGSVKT
Assay [6] addresses Fibroblast growth factor receptor 1 (Homo sapiens, UniProt P11362). The experiment in a line: Inhibition of FGFR1 (unknown origin) using Tyr 04 peptide substrate measured after 2 hrs by FRET assay.
In assay [7] the test system is NCI-H1581. The experiment in a line: Cytotoxicity against human NCI-H1581 cells harboring FGF19/FGFR4 assessed as inhibition of cell growth.

Fibroblast growth factor receptor 1, sequence (P11362 whole entry): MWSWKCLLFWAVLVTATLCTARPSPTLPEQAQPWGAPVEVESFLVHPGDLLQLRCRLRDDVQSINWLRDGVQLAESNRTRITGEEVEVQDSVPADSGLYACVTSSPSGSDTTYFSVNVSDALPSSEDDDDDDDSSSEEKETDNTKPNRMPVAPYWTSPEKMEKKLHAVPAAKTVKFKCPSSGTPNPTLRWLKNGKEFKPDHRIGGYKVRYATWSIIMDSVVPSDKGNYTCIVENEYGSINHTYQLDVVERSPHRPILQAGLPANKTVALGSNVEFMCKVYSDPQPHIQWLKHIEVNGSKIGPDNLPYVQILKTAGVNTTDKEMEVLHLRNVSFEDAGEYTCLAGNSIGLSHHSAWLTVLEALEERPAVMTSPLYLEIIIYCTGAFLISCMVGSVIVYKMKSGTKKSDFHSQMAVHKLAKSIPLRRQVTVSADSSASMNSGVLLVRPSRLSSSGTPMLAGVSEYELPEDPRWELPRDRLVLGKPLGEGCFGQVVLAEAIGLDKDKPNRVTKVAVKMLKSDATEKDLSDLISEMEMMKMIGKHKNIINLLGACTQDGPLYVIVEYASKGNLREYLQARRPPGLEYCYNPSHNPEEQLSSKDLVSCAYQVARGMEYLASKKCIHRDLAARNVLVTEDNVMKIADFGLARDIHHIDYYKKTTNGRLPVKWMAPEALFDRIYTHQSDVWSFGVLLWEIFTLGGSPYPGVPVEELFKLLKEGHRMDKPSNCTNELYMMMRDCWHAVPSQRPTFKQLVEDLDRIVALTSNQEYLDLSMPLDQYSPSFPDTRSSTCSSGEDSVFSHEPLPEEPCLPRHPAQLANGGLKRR
Fibroblast growth factor receptor 3, sequence (P22607 whole entry): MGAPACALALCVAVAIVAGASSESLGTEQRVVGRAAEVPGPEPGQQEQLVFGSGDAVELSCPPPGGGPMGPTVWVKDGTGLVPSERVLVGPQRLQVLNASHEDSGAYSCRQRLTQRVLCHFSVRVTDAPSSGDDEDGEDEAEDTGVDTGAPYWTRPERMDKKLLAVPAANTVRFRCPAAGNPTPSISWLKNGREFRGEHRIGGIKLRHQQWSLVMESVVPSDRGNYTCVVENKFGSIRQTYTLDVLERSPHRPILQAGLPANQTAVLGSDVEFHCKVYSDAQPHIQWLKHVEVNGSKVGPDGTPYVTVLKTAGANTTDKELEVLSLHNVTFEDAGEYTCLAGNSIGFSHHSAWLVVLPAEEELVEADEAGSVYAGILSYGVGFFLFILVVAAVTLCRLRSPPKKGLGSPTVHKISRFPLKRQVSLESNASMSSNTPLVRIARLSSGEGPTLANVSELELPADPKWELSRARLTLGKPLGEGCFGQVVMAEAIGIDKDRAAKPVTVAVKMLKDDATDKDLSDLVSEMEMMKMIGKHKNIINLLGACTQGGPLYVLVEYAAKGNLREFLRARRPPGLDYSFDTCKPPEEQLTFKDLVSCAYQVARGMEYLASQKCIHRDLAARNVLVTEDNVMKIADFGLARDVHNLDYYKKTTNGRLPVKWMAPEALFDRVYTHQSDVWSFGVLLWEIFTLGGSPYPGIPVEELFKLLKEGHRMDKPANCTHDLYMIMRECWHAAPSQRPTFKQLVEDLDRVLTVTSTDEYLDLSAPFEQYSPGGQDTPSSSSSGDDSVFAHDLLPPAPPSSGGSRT

With `COc1cc(C#Cc2cnc(NC(=O)N3CCCc4cc(CN5CCN(C)CC5=O)c(C=O)nc43)cc2OC(C)C)cc(OC)c1`, the IC50 in assay [1] was 0.0658 µM; in assay [2] it was above 10 µM; in assay [3], 1.34 µM; in assay [4], 0.466 µM; in assay [5], above 10 µM; in assay [6], above 10 µM. Also, the IC50 in assay [7] is above 3 µM.
On to `COc1cc(CCc2cnc(NC(=O)N3CCCc4cc(CN5CCN(C)CC5=O)c(C=O)nc43)cc2OC(C)C)cc(OC)c1`, for which the half-inhibitory concentration (IC50) in assay [1] was 0.0149 µM; in assay [2], above 10 µM; in assay [3], 1.45 µM; in assay [4], 2.26 µM; in assay [5], above 10 µM; in assay [6], above 10 µM. In assay [7], the IC50 is above 3 µM.
On to `C=CC(=O)Nc1cccc(C)c1Nc1ncc2cc(-c3c(Cl)c(OC)cc(OC)c3Cl)ccc2n1`, for which the IC50 in assay [2] is above 10 µM; in assay [3], 0.55 µM; in assay [4] it was 0.12 µM; in assay [5], above 10 µM; in assay [6], above 10 µM; in assay [7], above 43.3 µM.
`CC(C)Oc1cc(NC(=O)N2CCCc3cc(CN4CCN(C)CC4=O)c(C=O)nc32)ncc1C#Cc1ccccn1`: the 50% inhibitory concentration (IC50) in assay [1] is 0.00624 µM; in assay [2], above 10 µM; in assay [3], 0.658 µM; in assay [4], 1.33 µM; in assay [5] it was above 10 µM; in assay [6], above 10 µM. Moreover, the IC50 in assay [7] is above 3 µM.
In the case of `COCCNc1cc(NC(=O)N2CCCc3cc(CN4CCN(C)CC4=O)c(C=O)nc32)ncc1C#N` [FGF401], the half-maximal inhibitory concentration (IC50) in assay [1] was 0.0089 µM; in assay [3] it was 0.21 µM; in assay [4], 0.92 µM; in assay [7] it was above 3 µM.
Regarding `COc1cc(C#Cc2cnc(NC(=O)N3CCCc4ccc(C=O)nc43)cc2OC(C)C)cc(OC)c1`, the IC50 in assay [2], in assay [5] and in assay [6] was above 10 µM in each case.
Turning to `O=Cc1ccc2c(n1)N(C(=O)Nc1cc(F)c(C#Cc3ccccn3)cn1)CCC2`, the IC50 in assay [2], in assay [5] and in assay [6] was above 10 µM throughout.
In the case of `COCCOc1cc(NC(=O)N2CCCc3ccc(C=O)nc32)ncc1C#Cc1ccccn1`, the IC50 in assay [2], in assay [5] and in assay [6] was above 10 µM each time.
For `CC(C)Oc1cc(NC(=O)N2CCCc3ccc(C=O)nc32)ncc1C#Cc1cccc(C#N)c1`, the IC50 in assay [2], in assay [5] and in assay [6] was above 10 µM throughout.
In the case of `CC(C)Oc1cc(NC(=O)N2CCCc3ccc(C=O)nc32)ncc1C#Cc1cncnc1`, the IC50 in assay [2], in assay [5] and in assay [6] was above 10 µM each time.
On to `COc1cc(OC)cc(-c2cnc(NC(=O)N3CCCc4ccc(C=O)nc43)cc2OC(C)C)c1`, for which the IC50 in assay [2], in assay [5] and in assay [6] was above 10 µM throughout.

What is called IC50 is the concentration needed to halve the response being measured.

(Values after ChEMBL document CHEMBL5046271, “Design, Synthesis, and Biological Evaluation of 2-Formyl Tetrahydronaphthyridine Urea Derivatives as New Selective Covalently Reversible FGFR4 Inhibitors” (J Med Chem, 2022).)
